# US6569404B1, “Phase shift colloids as ultrasound contrast agents” (priority 1993, dated 2003)
# Where “and” joins values, the source holds several entries; their conditions need not be identical. Identical values can stand only once. Like-named read-outs stand apart in the source and are kept apart here.
# What was measured:
# [1] = at 25° C.; cited from earlier work
# [2] = Backscatter persistence and intensity of 2% mixtures in saline, 1000 mL water at 37° C., Hewlett-Packard 77020A; conditions: for Ratio of Persistence: 2% in saline, saline+air set as 1; for Ratio of Intensity: backscatter intensity qualitatively ranked from 0 to 5
# Method: The following emulsions were formulated and tested according to methods described in Example 18.
# All solutions were made as a 2% solution in saline. A volume of 0.1 cc of each chemical was comminuted with 5 cc saline through a 3-way stopcock for 25 passes. A volume of 1.0 mL of the mixture was immediately injected through a 1.2 μm filter into a stirring water bath containing 1000 mL water at 37° C. The resulting backscatter was then recorded with the use of a Hewlett-Packard 77020A Ultrasound System at […].
# [3] = cited from earlier work; for B.P.: chemicals of Example 52
# [4] = Emulsion stability versus relative HLB of Pluronic L61/F68 mixtures; format: physicochemical; conditions: from stability of emulsions
# From the text: The relative hydrophilic-lipophilic balance (HLB) is a method of optimizing a nonionic surfactant solution to achieve greatest stability. It is described in detail in Emulsions: Theory and Practice, Paul Becher, 1965, Robert E. Krieger Publishing Company Malabar, Fla., and references contained therein, and is incorporated here by reference. Solutions of Pluronic L61 (HLB 3.0) and F68 (HLB 29) were mixed to achieve intermediate HLB values by the following formula:
# HLB=fL61 {HLB of L61}+ff68 {HLB of F68} The actual solutions, the calculated HLB values, and the stability of the final formulation (a 2% v/v emulsion of dodecafluorohexane) are contained in the following table: […]
# [5] = Interfacial tension against dodecafluoropentane at 4° C., Kruss Drop Volume Tensiometer DVT-10; format: physicochemical; conditions: from graph of IFT versus HLB
# Method: Mixtures of Pluronic P-123 and Pluronic F-127 were formed, yielding a 1% solution, v/v, with graded HLB numbers and the interfacial tension (IFT) of the solutions against dodecafluoropentane determined at 4° C., using a Kruss Drop Volume Tensiometer DVT-10, Kruss USA, Charlotte, N.C. The results are contained in the following table:
# Interfacial tensions of various amphiphilic materials in aqueous solutions (all expressed as v/v solutions) against dodecafluoropentane were measured at 4° C. and emulsions created from each formulation, as described in Example 13.
# [6] = Acoustic backscatter: gray scale intensity (videodensity) in water beaker at 37° C., Hewlett Packard 77020 scanner, 5.0 MHz
# Method: Two solutions were prepared to simulate the administration to an organism of either a colloidal dispersion of a low boiling liquid or the liquid, neat.
# The emulsions contained Fluorad 170 C as surfactant and were formed by applying acoustic energy from a waterbath sonicator.
# [7] = In vitro ultrasound backscatter / echogenicity of formulations (qualitative); conditions: in words
# dogs = conditions: Ziskin et al. 1972, cited from earlier work
# [8] = Expected change in dispersion size from liquid and gas densities; conditions: calculated from cubic root of volume
# Method: One can also calculate the expected change in dispersion size if one knows the relative densities of the dispersed liquid as a gas and liquid. For example, the Gas Data Book, by W Braker and A Mossman, Matheson, contains such data. Examining octafluorocyclobutane, one finds that 1 L of the liquid yields 188 L of gas at a pressure of 760 mm Hg and 15° C. Since the volume of a sphere is related to the diameter of a sphere by the cubic root of the volume, the phase transition for an octafluorobutane emulsion particle will cause a 5.7-fold increase in diameter.
# [9] = 760 mm Hg and 15° C.; Gas Data Book; cited from earlier work
# [10] = 1.0 mL in 1000 mL water at 37° C.
# [11] = dispersed phase of emulsions of Example 18
# [12] = Chemical List of low boiling liquids, Example 45
# [13] = boiling point under standard pressure conditions, chemical list arranged by total atoms
# [14] = emulsion with Fluorad 170 C, 0.2 mL in 1000 mL water at 37° C., six seconds, backgrounds 2.9, 3.0, 3.6
Compound,"Boiling Point [3, 12]","Boiling Point [3, 13]",other results
"ClCCCl [1,2, Dichloroethane, reference compound]",–,–,"Vapor Pressure [1]: 87 mmHg at 25 °C; Ratio of Persistence [2, 10]: 6; Ratio of Intensity [2]: 0.25; B.P. [3]: 83 °C"
FC(F)(F)C(Cl)Br (centres unmarked) [Halothane],–,–,"Ratio of Persistence [2, 10]: 6; Ratio of Intensity [2]: 0.25; B.P. [3]: 50 °C"
CCCCCCCCC [Nonane],–,–,"Ratio of Persistence [2, 10]: 9; Ratio of Intensity [2]: 0.5; B.P. [3]: 151 °C"
FC1(F)C(F)(F)C(F)(F)C2(F)C(F)(F)C(F)(F)C(F)(F)C(F)(F)C2(F)C1(F)F (centres unmarked) [Perfluorodecalin],–,–,"Ratio of Persistence [2, 10]: 9; Ratio of Intensity [2]: 2.0; B.P. [3]: 141 °C"
"FC(F)(F)C(F)(F)C(F)(F)C(F)(F)C(F)(F)C(F)(F)F [Perfluorohexane, reference compound]",–,–,"relative HLB established [4]: 6-8; Boiling Point [3, 11]: 59 °C"
"O=[N+]([O-])C(F)(F)C(F)(F)C(F)(F)F [Propane, heptafluoro-1-nitro]",25.0 degrees Celcius,–,–
"O=NC(F)(F)C(F)(F)C(F)(F)F [Propane, heptafluoro-1-nitrose]",−12.0 degrees Celcius,–,–
"FC(F)(F)C(F)(F)C(F)(F)F [Propane, perfluoro]",−36.0 degrees Celcius,–,–
"FC(F)=C(F)C(F)(F)F [Propylene, perfluoro]",−29.4 degrees Celcius,–,–
C#CC [Propyne],−23.2 degrees Celcius,–,–
F[C](F)(F)[Ge]([C](F)(F)F)([C](F)(F)F)[C](F)(F)F [Tetrakis(trifluoromethyl) germane],–,31.7 degrees Celcius,–
N#CC(F)(F)F [Trifluoroacetonitrile],−64.0 degrees Celcius,–,–
FC(F)(F)SC(F)(F)F [Trifluoromethyl sulfide],−22.2 degrees Celcius,–,–
CN(C)C [Trimethyl amine],2.9 degrees Celcius,–,–
F[C](F)(F)[Ge]([Cl])([C](F)(F)F)[C](F)(F)F [Tris-(trifluoromethyl)-germaniumchloride],–,37 degrees Celcius,–
[F][W]([F])([F])([F])([F])[F] [Tungsten hexafluoride],17.5 degrees Celcius,–,–
C#CC=C [Vinyl acetylene],5.1 degrees Celcius,–,–
C=COC=C [Vinyl ether],28.0 degrees Celcius,–,–
[Xe] [Xenon],−108.0 degrees Celcius,–,–
CP(C)NP(C)C [bis(Dimethyl phosphino) amine],33.5 degrees Celcius,–,–
O=C(C(F)(F)F)C(F)(F)Br [bromo-pentafluoro-acetone],–,31 degrees Celcius,–

Compound,"Boiling Point [3, 12]","Boiling Point [3, 13]",other results
CCCCB(F)F [butyl-difluoro-borane],–,35 degrees Celcius,–
FC(F)(F)C(F)(F)C(F)(F)C(F)(F)F [decafluoro-butane],–,−1.7 degrees Celcius,–
FC(F)I [difluoro-iodo-methane],–,21.6 degrees Celcius,–
CSC [dimethyl sulfide],–,36 degrees Celcius,–
FC(F)(F)C(F)(F)C(F)(F)C(F)(F)C(F)(F)F [dodecafluoropentane],30.5 degrees Celcius,–,"Vapor Pressure [1]: 646 mmHg at 25 °C; time over which backscatter diminished [2, 10]: 4 to 5 min; Ratio of Persistence [2, 10]: 24; Ratio of Intensity [2]: 5; Ratio of Intensity ([2]; listed as Dodecafluoropentane): 5.0; HLB for the dispersed phase liquid [5]: about 14; grayscale intensity [6, 14]: 58.5 units; grayscale intensity ([6]; fifty-two seconds post-injection into 1000 mL water at 37° C., gray scale of 2 to 254): 5.0; grayscale intensity ([6]; five seconds post-injection into 1000 mL water at 37° C., gray scale of 2 to 254, 0.1 mL emulsion (before 4.27) or 0.2 mL neat liquid (before 4.9)): 7.7; B.P. [3]: 29 °C; Boiling Point [3]: 28-29 °C; Boiling Point [3, 11]: 29 °C"
"CCOCC [ether, diethyl ether]",34.5 degrees Celcius,–,in vitro ultrasound backscatter characteristics [7]: useful contrast signal; lethality (dogs; injections of 20 mL): proved fatal; contrast effect (Doppler signal) (dogs; intraarterial): greatest contrast effect of any agent that we tried
CCC1CC1 [ethyl-cyclopropane],–,35.8 degrees Celcius,–
CCN(C)C [ethyl-dimethyl-amine],–,36.4 degrees Celcius,–
CCOC [ethyl-methyl ether],–,6.6 degrees Celcius,–
CC[Si](F)(F)F [ethyl-trifluoro-silane],–,−4.4 degrees Celcius,–
C=COCC [ethyl-vinyl ether],–,35 degrees Celcius,–
NC=O [formamide],–,2.18 degrees Celcius,–
CC(C)N [isopropylamine],–,31.7 degrees Celcius,–
CC1CCC1 [methyl-cyclobutane],–,36 degrees Celcius,–
CC1CC1 [methyl-cyclopropane],–,0.7 degrees Celcius,–
FC(F)(F)C(F)(F)C(F)(C(F)(F)F)C(F)(F)F [nonafluoro-2-trifluoromethyl-butane],–,30.12 degrees Celcius,–
FC1(F)C(F)(F)C(F)(F)C1(F)F [octafluorocyclobutane],–,–,increase in diameter of emulsion particle on phase transition [8]: 5.7 fold; volume of gas from 1 L of the liquid [9]: 188 L
FC1(F)C(F)(F)C(F)(F)C(F)(F)C1(F)F [perfluorocyclopentane],–,–,"grayscale intensity [6, 14]: 158.9 units; Boiling Point [3]: 22.5 °C and 22 °C"
C1CC12CC2 [spiropentane],–,35 degrees Celcius,–
CCC[Si](F)(F)F [trifluoro-propyl-silane],–,25 degrees Celcius,–
